From ChEMBL document CHEMBL1201862, “PubChem BioAssay data set” (2004)
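These data come from cells grown in 96-well plates and exposed to compound for 48 hours at five concentrations. At the GI50, growth is halved.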 Active and inactive are the calls of the source. Rule as the data show it: active = GI50 up to about 1.1 µM and inactive = higher. Starred links: 1 amine or outer side, 2 acyl side, 3 side chain; linkers in the order of their positions; H or OH if unused. Positions of bridges follow the written chain, without caps; N, C: chain ends. Non-standard residues stand in square brackets, D forms with d. Residues, ends and D or L forms follow the SMILES beside them. Peptide text beside a SMILES is read from it. * marks the point of attachment. *: point of attachment. X40 = CC[C@H](C)[C@@H](N[*:1])[C@@H](O)CC(=O)[*:2]; NMeY = CN[C@@H](Cc1ccc(O)cc1)C(=O)O; dNMeL = CN[C@H](CC(C)C)C(=O)O; Hiv = CC(C)[C@H](O)C(=O)O; Pyruvoyl = CC(=O)C(=O)*; Boc = CC(C)(C)OC(=O)*

What was measured:
Test in all cases: DTP human tumour cell line panel, 48 h
Malme-3M = system: Malme-3M
COLO 205 = system: COLO 205
CCRF-CEM = system: CCRF-CEM
HCT-15 = system: HCT-15
Hs-578T = system: Hs-578T
HOP-92 = system: HOP-92
M14 = system: M14
HT-29 = system: HT-29
BT-549 = system: BT-549
MDA-MB-231 = system: MDA-MB-231
SN12C = system: SN12C
SK-MEL-5 = system: SK-MEL-5
SK-MEL-28 = system: SK-MEL-28
SW-620 = system: SW-620
UO-31 = system: UO-31
SNB-75 = system: SNB-75
SNB-19 = system: SNB-19
MDA-MB-435 = system: MDA-MB-435
SF-268 = system: SF-268
IGROV-1 = system: IGROV-1

Measured: GI50

C=C[C@@]1(C)CC2(C=C(CO)C(O)O2)Oc2c1c(=O)oc1cccc(C)c21 (stereo not given in full)
2.39 µM: HCT-15
inactive: Malme-3M 4.85 µM | COLO 205 9.08 µM | CCRF-CEM 1.58 µM | Hs-578T 10.6 µM | HOP-92 20.2 µM | M14 3.52 µM | HT-29 4.69 µM | BT-549 3.35 µM | MDA-MB-231 10.5 µM | SN12C 9.86 µM | SK-MEL-5 12.7 µM | SK-MEL-28 7.74 µM | SW-620 1.55 µM | UO-31 5.31 µM | SNB-75 14.8 µM | SNB-19 16.7 µM | MDA-MB-435 3.57 µM | SF-268 3.25 µM | IGROV-1 13.8 µM

Cc1cc2nc(C#N)c(N3CCN(c4ccc([N+](=O)[O-])cc4)CC3)nc2cc1C
inactive: Malme-3M > 100 µM | COLO 205 > 100 µM | CCRF-CEM > 100 µM | Hs-578T 29.1 µM | HOP-92 50.4 µM | M14 > 95.9 µM | HT-29 > 88.5 µM | BT-549 > 100 µM | MDA-MB-231 > 100 µM | SN12C > 92.7 µM | SK-MEL-5 > 100 µM | SK-MEL-28 > 100 µM | SW-620 > 100 µM | UO-31 > 93.8 µM | SNB-75 63.5 µM | SNB-19 67 µM | MDA-MB-435 > 100 µM | SF-268 > 57.7 µM | IGROV-1 > 100 µM
> 100 µM: HCT-15

C#CC1(O)C(COP(=O)(O)OCC2OC(n3ccc(NCCCCCCCCCCCCCCCCCC)nc3=O)C(O)C2O)OC(n2ccc(N)nc2=O)C1O (stereo not given)
0.353 µM: HCT-15
inactive: Hs-578T 2.12 µM | HOP-92 21.2 µM | BT-549 2.73 µM | SK-MEL-5 1.23 µM | SK-MEL-28 1.78 µM | SNB-75 2.67 µM | SNB-19 2.71 µM | SF-268 1.34 µM
active: Malme-3M 0.745 µM | COLO 205 0.71 µM | CCRF-CEM 0.929 µM | M14 0.254 µM | HT-29 0.518 µM | MDA-MB-231 1.03 µM | SN12C 0.488 µM | SW-620 0.228 µM | UO-31 0.0716 µM | MDA-MB-435 0.575 µM | IGROV-1 0.218 µM

Cc1nn2c(=O)c([N+](=O)[O-])c(/C=C/c3ccc(F)cc3)nc2s1
7.5 µM: HCT-15
inactive: Malme-3M 11.6 µM | COLO 205 12.1 µM | CCRF-CEM 4.47 µM | Hs-578T 11.2 µM | HOP-92 15.5 µM | M14 11.3 µM | HT-29 6.52 µM | BT-549 5.12 µM | MDA-MB-231 13.9 µM | SN12C 11.6 µM | SK-MEL-5 7.94 µM | SK-MEL-28 12.9 µM | SW-620 11.5 µM | UO-31 8.75 µM | SNB-75 9.27 µM | SNB-19 10.8 µM | MDA-MB-435 4.33 µM | SF-268 8.87 µM | IGROV-1 10.5 µM

C#CC1(O)CCC2[C@@H]3CCc4cc(Oc5nc(F)nc(-c6c(C)c(C(=O)OCC)n7ccccc67)n5)ccc4C3CC[C@@]21C (stereo not given in full)
inactive: Malme-3M > 100 µM | COLO 205 > 100 µM | CCRF-CEM 61 µM | Hs-578T > 100 µM | HOP-92 > 100 µM | M14 > 100 µM | HT-29 > 100 µM | BT-549 > 100 µM | MDA-MB-231 > 100 µM | SN12C > 100 µM | SK-MEL-5 > 100 µM | SK-MEL-28 > 100 µM | SW-620 > 100 µM | UO-31 > 100 µM | SNB-75 > 100 µM | SNB-19 > 100 µM | MDA-MB-435 > 100 µM | SF-268 > 100 µM | IGROV-1 > 100 µM
> 100 µM: HCT-15

COCN1CCN=c2c1c1c3c(c4ccccc4n23)CCC1
inactive: Malme-3M > 100 µM | COLO 205 > 100 µM | CCRF-CEM > 100 µM | Hs-578T > 100 µM | HOP-92 > 100 µM | M14 > 100 µM | HT-29 > 100 µM | BT-549 > 100 µM | MDA-MB-231 > 100 µM | SN12C > 100 µM | SK-MEL-5 > 100 µM | SK-MEL-28 > 100 µM | SW-620 > 100 µM | UO-31 > 100 µM | SNB-75 > 100 µM | SNB-19 > 100 µM | MDA-MB-435 > 100 µM | SF-268 > 100 µM | IGROV-1 > 100 µM
> 100 µM: HCT-15

CCCc1cn2c(/C=N/N=C(N)N)c(-c3c(OC)ccc(OC)c3[N+](=O)[O-])nc2s1
18.2 µM: HCT-15
inactive: Malme-3M 10.3 µM | COLO 205 2.16 µM | CCRF-CEM 2.84 µM | Hs-578T 13.1 µM | HOP-92 12.5 µM | M14 7.08 µM | HT-29 4.06 µM | BT-549 10.9 µM | MDA-MB-231 4.07 µM | SN12C 14.2 µM | SK-MEL-5 13.3 µM | SK-MEL-28 4.84 µM | SW-620 7.78 µM | UO-31 20.4 µM | SNB-75 16.3 µM | SNB-19 18.4 µM | MDA-MB-435 5.42 µM | SF-268 11.4 µM | IGROV-1 9.89 µM

COC(=O)C(Cc1ccccc1)NC(=O)C(CS)NC(=O)OC(C)(C)C (stereo not drawn) (Boc-Cys-Phe-OMe; configuration not given here)
> 100 µM: HCT-15
inactive: Malme-3M > 100 µM | COLO 205 > 100 µM | CCRF-CEM 21.8 µM | Hs-578T > 100 µM | HOP-92 > 100 µM | M14 > 100 µM | HT-29 99.3 µM | BT-549 > 100 µM | MDA-MB-231 26.9 µM | SN12C > 100 µM | SK-MEL-5 > 100 µM | SK-MEL-28 > 100 µM | SW-620 53.7 µM | UO-31 74.1 µM | SNB-75 > 100 µM | SNB-19 > 100 µM | MDA-MB-435 > 100 µM | SF-268 > 100 µM | IGROV-1 > 100 µM

CC[C@H](C)[C@H]1NC(=O)[C@@H](NC(=O)[C@@H](CC(C)C)N(C)C(=O)[C@@H]2CCCN2C(=O)C(C)=O)[C@@H](C)OC(=O)[C@H](Cc2ccc(OC)cc2)N(C)C(=O)[C@@H]2CCCN2C(=O)[C@H](CC(C)C)NC(=O)[C@H](C(C)C)OC(=O)C[C@@H]1O (Pyruvoyl-P[dNMeL]T[X40][Hiv]LP[NMeY](Me); ester 3-C)
active: Malme-3M 0.00538 µM | COLO 205 0.00368 µM | CCRF-CEM 0.00224 µM | Hs-578T 0.00476 µM | HOP-92 0.0302 µM | M14 0.00269 µM | HT-29 0.00434 µM | BT-549 0.00617 µM | MDA-MB-231 0.0138 µM | SN12C 0.0043 µM | SK-MEL-5 0.00393 µM | SK-MEL-28 0.005 µM | SW-620 0.00505 µM | UO-31 0.01 µM | SNB-75 0.00482 µM | SNB-19 0.00224 µM | MDA-MB-435 0.00485 µM | SF-268 0.00569 µM | IGROV-1 0.00471 µM
0.0252 µM: HCT-15
